Experimental data: patent US20230181564A1, “Potent Tetrahydroquinolone Eliminates Apicomplexan Parasites” (The University of Chicago, priority 2020, published 2023)
Values after ≈ are worked out from the molar mass of the structure shown.

Tests used:
[1] = Kinetic/aqueous solubility in PBS pH 7.4; type: physicochemical
Experimental: PBS Sol/Toxicity pH7.4 refers to solubility of the compound in Phosphate Buffered Saline (PBS) at pH7.4. […] Parasites were RH-YFP expressing tachyzoites (Tachy) and EGS (Brady) strains. Studies of effects of inhibitors on HFF or on T.gondii tachyzoites were performed with triplicate wells in at least two biological replicate experiments. Studies of effects on bradyzoites were performed at least twice in at least two biological replicate experiments. Compounds with much less inhibition of mammalian than T. gondii cytochrome bc in the saffarine enzyme assay (indicated by **) provide potential to further develop compounds, if unanticipated toxicity occurs from JAG21.
Structure Activity Relationship (SAR) and comparison of effect on T.gondii and HFF enzyme activity. […] The MDCK-MDR1 Permeability Assay was also performed. […] These were measured by Chem Partners.

bovine cytochrome bc1 = target: T1, bovine cytochrome bc1 (Bos taurus, UniProt P00157); assay: Bovine cytochrome bc1 activity assay; type: biochemical; conditions: read-out: Inhibition of bovine Cytbc1 activity
T1 construct: Whole fresh bovine heart was collected after slaughter; from tissue; host or cells: bovine heart mitochondria; DDM-solubilised, DEAE-Sepharose, Sephacryl S-300, PEG fractionation
Experimental: Bovine cytochrome bc1 activity assays. Bovine cytochrome bc, inhibition assay was carried out in 50 mM KPi pH 7.5, 2 mM EDTA, 10 mM KCN, 30 μM equine heart cytochrome c (Sigma Aldrich), and 2.5 nM bovine cytochrome bc, at room temperature. 20 mM inhibitors dissolved in DMSO were added to the assay at a desired concentration without prior incubation. […] The reaction was initiated by the addition of 50 μM decylubiquinol (Abcam). The reduced cytochrome c was monitored by the different absorption between 550 and 542 nm using extinction coefficient of 18.1 mM^−1 cm^−1 in a SPECTRAmax Plus 384 UV-visible Spectrometer. The initial kinetic rate is determined as a zero-order reaction and used as the specific activity of cytochrome bc1.

[2] = test system: T. gondii mitochondrial membrane potential (cytochrome bc); assay: Mitochondrial membrane potential by the safranine method (T. gondii, compared with HFF); type: cell-based, Toxoplasma gondii; conditions: permeabilized tachyzoites, safranin O
Experimental: T.gondii and HFF Mitochondrial Membrane Potential Measurements—the mitochondrial membrane potential was measured by the safranine method according to Vercesi et al, 1998). Freshly egressed T. gondii tachyzoites were filtered and washed twice with intracellular buffer (125 mM sucrose, 65 mM KCl, 10 mM HEPES-KOH buffer, pH 7.2, 1 mM MgCl2 and 2.5 mM potassium phosphate). After washing, the parasites were resuspended in the same buffer at 10^9/ml. An aliquot of 50 μL of this suspension was added to a cuvette containing Safranin 0, 2.5 μM and Succinate 1 mM in final volume of 2 mL of the intracellular buffer. The fluorescence was measured with a Hitachi 7000 spectrofluorometer with setting Ex. 495/Em. 586. Once the baseline fluorescence is testable, 30 μM digitonin was added to permeabilize the parasites. 85 seconds after permeabilization, the THQ derivatives, dissolved in DMSO, were added. 5 μM of FCCP (Carbonyl cyanide-4-(trifluoromethoxy) phenylhydrazone) was used as an uncoupler reference for calculations and its effect was considered 100%. Similar conditions for measuring the mitochondrial potential of mammalian cells were used with the following changes: the mammalian cells were re-suspended at 10^8/ml. 50 μl of mammalian cells was also used for each run in a cuvette with […]. The substrate used for mammalian cells was 5 mM glutamate and 5 mM malate. A higher concentration of digitonin (50 μM) was used to permeabilize the mammalian cells. The compounds were added at about 400 seconds after permeabilization. Each experiment was repeated at least three times in duplicates. Statistical analysis, unpaired student t test, was performed using GraphPad Prism 8.0 (GraphPad Software, Inc., San Diego, Calif.).
Mitochondrial membrane potential measurements were performed with permeabilized T.gondii tachyzoites in suspension using safranin O, which loads into polarized membranes. T. gondii tachyzoites were permeabilized with digitonin to allow the mitochondrial substrate succinate to cross the membrane and energize the mitochondrion. The fluorescence of safranin O, which loads into energized mitochondria was used to measure the membrane potential. The energized state of the mitochondrion is observed by a decrease in fluorescence (FIGS. 3A,C,E). Trifluoromethoxy carbonylcyanide phenylhydrazone (FCCP) was used to depolarize the membrane, which causes the fluorescence to go up as shown in FIG. 3A. JAG21 depolarized the membrane potential even at concentrations as low as 2 nM (FIG. 3C,D). JAG21 and Atovaquone had similar effects on the mitochondrial membrane potential (FIG. 3D). […] The effect of these THQ compounds against the T. gondii mitochondrial membrane potential was greater than the effect on the human foreskin fibroblast membrane potential (FIG. 3E,F). […]

[3] = test system: T. gondii (Prugneaud strain expressing luciferase) tachyzoites; assay: Acute infection with Prugneaud luciferase tachyzoites in Balb/C mice (IVIS, brain cysts); type: in vivo, Toxoplasma gondii
Experimental: IVIS. Balb/C mice were infected intraperitoneally (IP) with 20×10^3 T. gondii (Prugneaud strain expressing luciferase) tachyzoites. Treatment began 2 hours later with JAG21 (5 mg/kg) which was dissolved in DMSO, administered IP in a total volume of 0.05 ml. Mice were imaged every second day starting on day 4 post infection using an IVIS Spectrum (Caliper Life Sciences) for […], with medium binning, 20 minutes post injection with 150 mg/kg of D-luciferin potassium salt solution.
Brain cysts. Brain cysts were searched for in paraffin imbedded tissue of the surviving Prugneaud strain infected treated Balb/C mice in the IVIS study, 30 days after infection which was 16 days after treatment had been discontinued. All treated mice had survived. There were no surviving untreated mice in those experiments.

Which results are given for `Cc1[nH]c2c(c(=O)c1-c1ccc(Oc3ccc(OC(F)(F)F)cc3)cc1)CCCC2` [JAG021, 2-methyl-3-(4-(4-(trifluoromethoxy)phenoxy)phenyl)-5,6,7,8-tetrahydroquinolin-4-one]?
solubility ([1]; amorphous compounds): 7 µM (≈ 2.91 µg/mL); Solubility of the microcrystalline form ([1]; microcrystalline form): 3.5 µM; PBS Sol pH7.4 ([1]; solubility in Phosphate Buffered Saline pH 7.4, first value of cell): 7.07 μM; inhibition at 0.1 µM (bovine cytochrome bc1; 0.1 μM): 36%; inhibition at 1 µM (bovine cytochrome bc1; 1 μM): 63%; Concentration depolarizing the T. gondii mitochondrial membrane potential [2]: ≤ 2 nM; Luciferase tachyzoites in luminescence studies ([3]; 5 mg/kg/day IP): eliminates illness and T. gondii Type II Prugneaud luciferase tachyzoites completely; Cysts in brains ([3]; 5 mg/kg/day for 14 days from start of infection, brains evaluated at 30 days): no cysts being found; Survival of infected mice ([3]; Balb/C mice, JAG21 5 mg/kg IP for 14 days): 100%
